The results in this text go back to patent publication US9526248B2 (Rohm and Haas Company, priority 2012, dated 2016).

The structures appear in SMILES notation. Like-named read-outs stand apart in the source and are kept apart here.

The test system of assay [1] is Chlorella sp. ATCC 7516. The experiment in a line: Algal efficacy test of dry paint films (modified ASTM 5589, 6-well plates). Format: cell-based. The conditions noted are these: for inhibition at 5000 ppm: 504 h; for Total conc: total biocide concentration in paint at which the % inhibition is reported, pass level ≥75% inhibition, single actives: maximum concentration tested, no pass. As to the method:
(§1) These paints were then diluted with an antimicrobial free acrylic/silicone based paint and mixed to prepare targeted concentrations of antimicrobial compounds for the testing. The total biocides concentrations tested were 125, 250, 500, 1000, 2000 and 5000 ppm. After biocides addition or dilution, the paints were mixed 90 seconds with the horse power shaker (AXEL 75M3372/Agitateur 50-10MI) until uniformity was achieved. Paints containing different antimicrobial compounds at the same levels were mixed together in order to obtain the desired ratio of antimicrobial compounds. After one day, the paints were applied to Schleicher & Schuell filter paper at 280 μm wet film thickness and dried for 3 days at room temperature avoiding direct exposure to sunlight. Square discs (1.6 cm×1.6 cm) were cut out from each panel and were used as the substrate for algal efficacy tests. This sample size allowed for an agar border when the sample disc was placed into the well of the test plate.
(§2) Algal efficacy was tested according to modified ASTM 5589 which is a standard accelerated test method for determining resistance of various coatings (including paints) to algal defacement. To accommodate for high-throughput screening, this method was scaled down from petri dishes to 6-well plates. Bold Modified Basal Freshwater Nutrient Solution was used as growth medium. A single coated filter paper coupon was placed with a pair of sterile forceps at the center of the agar plug (on top) with the painted surface facing upwards. Algal inoculums were prepared by mixing equal concentrations (1×10^6 cfu/ml) and equal volumes of exponentially growing algae cultures.
(§3) Each well that contains a tested coupon was inoculated with 1750 μl of algal suspensions (1×10^6 cfu/ml) making sure that the whole surface (paint film as well as the agar surrounding it) was evenly covered. The plates were incubated at room temp (21° C.-25° C.) with cyclic exposure to light and dark phases, for a period of three weeks.
(§4) At the end of the three week incubation period, the samples were scored for percent inhibition regarding visible algal growth compared to the blank sample (0% inhibition).
(§5) The SI is calculated based on F. C. Kull et.
(§6) SI value of <1 in the formula indicates a synergism of the blended biocides exists.
(§7) The minimal targeted inhibition was set at 75%, meaning a coupon with at least 75% algal growth inhibition was considered as a pass.

The test system of assay [2] is Stichococcus bacillaris SAG 379-1a / CCAP 379/1a. Described as above. Format: cell-based. Particulars: for inhibition at 5000 ppm: Stichococcus bacillaris, 504 h; for Total conc: total biocide concentration in paint at which the % inhibition is reported, pass level ≥75% inhibition, single actives: maximum concentration tested, no pass. How it is done: as §1, §2, §3, §4, §5, §6, §7

In general, inhibition refers to the drop in the measured response relative to a control, in per cent.

For the molecule `O=c1[nH]c2c(c(=O)n1C1CCCCC1)CCC2` [Lenacil, 3-cyclohexyl-1,5,6,7-tetrahydrocyclopentapyrimidine-2,4(3H)-dione], the results for the inhibition at 5000 ppm in assay [1] and in assay [2] were 30% and 70%, respectively. The Total conc in assay [1] (3 weeks) is 5000 ppm; in assay [2] (Stichococcus, 3 weeks), 5000 ppm.

Regarding `CCNc1nc(NC(C)(C)C)nc(SC)n1` [Terbutryn, N^2-tert-butyl-N^4-ethyl-6-methylthio-1,3,5-triazine-2,4-diamine], the inhibition at 5000 ppm in assay [1] (total conc 5000 ppm in paint, visible algal growth vs blank, 3 weeks, read-out: % inhibition) came to 65%; in assay [2] (Stichococcus, total conc 5000 ppm in paint, visible algal growth vs blank, 3 weeks, read-out: % inhibition) it was 35%. Moreover, the Total conc in assay [1] (3 weeks) worked out at 5000 ppm; in assay [2] (Stichococcus, 3 weeks), 5000 ppm.
